Test results from patent US9006257B2, “Bicyclic compounds as mPGES-1 inhibitors” (Glenmark Pharmaceuticals S.A., priority 2012, dated 2015).
pIC50: −log10 of the molar value.

Biological target: T1, Recombinant human mPGES-1 (Homo sapiens, UniProt O14684)
T1 construct: made in house; host or cells: CHO cells
T1 sequence (O14684 1-152): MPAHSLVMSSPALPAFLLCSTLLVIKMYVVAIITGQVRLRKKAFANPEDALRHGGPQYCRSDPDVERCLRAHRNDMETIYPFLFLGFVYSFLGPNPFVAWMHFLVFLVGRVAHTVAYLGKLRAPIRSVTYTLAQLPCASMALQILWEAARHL
Test: In-vitro mPGES-1 inhibitor screening (inhibition of PGE2 formation from PGH2, HTRF detection)
Type: biochemical
Conditions: for inhibition at 1 µM: 1 μM test compound, read-out: Percentage inhibition at 1 μM; for inhibition at 1 µM / inhibition at 10 µM: crude microsomal fraction, 15 μM PGH2; for inhibition at 10 µM: 10 μM test compound, read-out: Percentage inhibition at 10 μM; for pIC50: class symbol, concentration response curve
Description: In-Vitro Protocol for Screening of mPGES-1 Inhibitors:
mPGES-1 (microsomal prostaglandin E synthase-1) is a microsomal enzyme that converts endoperoxide substrate PGH2 (prostaglandin H2) to product PGE2 (prostaglandin E2) by isomerization in the presence of reduced glutathione (GSH). mPGES-1 inhibitors were screened by assessing their ability to inhibit formation of PGE2 from PGH2 in presence of mPGES-1 using an anti-PGE2 antibody based detection method. Recombinant human mPGES-1 was generated in-house by expression in CHO cells (Ouellet M et al. (2002), Protein Expression and Purification 26: 489-495). The assay was set up using crude microsomal fractions at protein concentration of 40-60 μg/mL. Test compounds were prepared in 100% dimethyl sulfoxide (DMSO) to obtain 20 mM stock solution and then diluted using assay buffer comprising 0.1 M Potassium phosphate buffer with 2 mM EDTA. The final concentration of DMSO in reaction was 0.5% (v/v). Negative controls were comprised of all assay reagents except the enzyme. Positive controls were comprised of the enzyme reaction in the absence of any inhibitor. Test compounds were incubated for 10 minutes in assay buffer containing 2.5 mM GSH and mPGES-1 enzyme followed by addition of PGH2 at a concentration of 15 μM for 1 minute. The reaction was stopped by addition of Stannous chloride (11 mg/ml) and PGE2 levels were measured (Masse F et al. (2005), Journal of Biomolecular Screening 10(6) 599-605., Goedken R E et al. (2008), Journal of Biomolecular Screening 13(7): 619-625) by HTRF kit (CisBio)).
Inhibition of mPGES-1 enzyme activity was measured using the percent of reaction occurring in the positive control. Concentration response curves were plotted using percent inhibition of maximum enzyme reaction. The IC50 value was calculated from the concentration response curve by nonlinear regression analysis using GraphPad PRISM software.

Structure (SMILES) | inhibition at 1 µM [%] | inhibition at 10 µM [%] | pIC50
CC1(C)CCC(Oc2ncnc3c(NC(=O)c4c(Cl)ccc(CNC(=O)C(C)(C)C)c4F)cccc23)CC1 [Example-24, 6-Chloro-N-(4-((4,4-dimethylcyclohexyl)oxy)quinazolin-8-yl)-2-fluoro-3-(pivalamidomethyl)benzamide] | 99.3 | 99.8 | > 7.30
CC(C)(C)C(=O)NCc1ccc(Cl)c(C(=O)Nc2cccc3c(Nc4ccc(F)c(C(F)(F)F)c4)ncnc23)c1F [Example-25, 6-Chloro-2-fluoro-N-(4-((4-fluoro-3-(trifluoromethyl)phenyl)amino)quinazolin-8-yl)-3-(pivalamidomethyl)benzamide] | 97.7 | 98.3 | > 7.30
CC(C)(C)C(=O)NCc1ccc(Cl)c(C(=O)Nc2cccc3c(O[C@H]4CC[C@@H](C(F)(F)F)CC4)ncnc23)c1F [Example-26, 6-Chloro-2-fluoro-3-(pivalamidomethyl)-N-(4-(((1s,4s)-4-(trifluoromethyl)cyclohexyl)oxy)quinazolin-8-yl)benzamide] | 93.4 | 93.1 | > 7.30
CC(C)(C)C(=O)NCc1ccc(Cl)c(C(=O)Nc2cccc3c(O[C@H]4CC[C@H](C(F)(F)F)CC4)ncnc23)c1F [Example-27, 6-Chloro-2-fluoro-3-(pivalamidomethyl)-N-(4-(((1r,4r)-4-(trifluoromethyl)cyclohexyl)oxy)quinazolin-8-yl)benzamide] | 94.4 | 93.9 | > 7.30
CC(C)(C)C(=O)NCc1ccc(Cl)c(C(=O)Nc2cccc3c(Oc4cc(C(F)(F)F)ccc4F)ncnc23)c1F [Example-28, 6-Chloro-2-fluoro-N-(4-(2-fluoro-5-(trifluoromethyl)phenoxy)quinazolin-8-yl)-3-(pivalamidomethyl)benzamide] | 99.1 | 100 | > 7.30
CC(C)(C)C(=O)NCc1ccc(Cl)c(C(=O)Nc2cccc3c(Nc4ccc(C(F)(F)F)cc4F)ncnc23)c1F [Example-29, 6-Chloro-2-fluoro-N-(4-((2-fluoro-4-(trifluoromethyl)phenyl)amino)quinazolin-8-yl)-3-(pivalamidomethyl)benzamide] | 99 | 99.8 | > 7.30
CC(C)(C)C(=O)NCc1ccc(Cl)c(C(=O)Nc2cccc3c(Nc4ccc(C(F)(F)F)nc4)ncnc23)c1F [Example-30, 6-Chloro-2-fluoro-3-(pivalamidomethyl)-N-(4-((6-(trifluoromethyl)pyridin-3-yl)amino)quinazolin-8-yl)benzamide] | 97.4 | 99.1 | > 7.30
CC(C)(C)C(=O)NCc1ccc(Cl)c(C(=O)Nc2cccc3c(Nc4cccc(C(F)(F)F)c4)ccnc23)c1F [Example-31, 6-Chloro-2-fluoro-3-(pivalamidomethyl)-N-(4-((3-(trifluoromethyl)phenyl)amino)quinolin-8-yl)benzamide] | 98.7 | 98.7 | > 7.30
CC1(C)CCC(Nc2nc(C(F)(F)F)nc3c(NC(=O)c4c(Cl)ccc(CNC(=O)C(C)(C)C)c4F)cccc23)CC1 [Example-32, 6-Chloro-N-(4-((4,4-dimethylcyclohexyl)amino)-2-(trifluoromethyl)quinazolin-8-yl)-2-fluoro-3-(pivalamidomethyl)benzamide] | 94.5 | 95.9 | > 7.30
Cc1nc(Nc2cccc(C(F)(F)F)c2)c2cccc(NC(=O)c3c(Cl)ccc(CNC(=O)C(C)(C)C)c3F)c2n1 [Example-33, 6-Chloro-2-fluoro-N-(2-methyl-4-((3-(trifluoromethyl)phenyl)amino)quinazolin-8-yl)-3-(pivalamidomethyl)benzamide] | 95.5 | 97.2 | > 7.30
O=C(Nc1cccc2c(Nc3cc(C(F)(F)F)ccc3F)ncnc12)c1c(F)cccc1Cl [Example-34, 2-Chloro-6-fluoro-N-(4-((2-fluoro-5-(trifluoromethyl)phenyl)amino)quinazolin-8-yl)benzamide] | 75.4 | 84 | < 7.00
CC1(C)CCC(Oc2nccc3c(NC(=O)c4c(Cl)ccc(CNC(=O)C(C)(C)C)c4F)cccc23)CC1 [Example-35, 6-Chloro-N-(1-((4,4-dimethylcyclohexyl)oxy)isoquinolin-5-yl)-2-fluoro-3-(pivalamidomethyl)benzamide] | 100 | 100 | > 7.30
CC(C)(C)C(=O)NCc1ccc(Cl)c(C(=O)Nc2cccc3c(N[C@H]4CC[C@H](C(F)(F)F)CC4)nccc23)c1F [Example-36, 6-Chloro-2-fluoro-3-(pivalamidomethyl)-N-(1-(((1r,4r)-4-(trifluoromethyl)cyclohexyl)amino)isoquinolin-5-yl)benzamide] | 98.1 | 99.1 | > 7.30
CC(C)(C)C(=O)NCc1ccc(Cl)c(C(=O)Nc2cccc3c(N[C@H]4CC[C@H](C(F)(F)F)CC4)ncnc23)c1F [Example-37, 6-Chloro-2-fluoro-3-(pivalamidomethyl)-N-(4-(((1r,4r)-4-(trifluoromethyl)cyclohexyl)amino)quinazolin-8-yl)benzamide] | 97.7 | 96.3 | > 7.30
CC(C)(C)C(=O)NCc1ccc(Cl)c(C(=O)Nc2cccc3c(O[C@H]4CC[C@H](C(F)(F)F)CC4)nccc23)c1 [Example-38, 2-Chloro-5-(pivalamidomethyl)-N-(1-(((1r,4r)-4-(trifluoromethyl)cyclohexyl)oxy)isoquinolin-5-yl)benzamide] | 99.3 | 99.9 | > 7.30
CC(C)(C)C(=O)NCc1ccc(Cl)c(C(=O)Nc2cccc3c(O[C@H]4CC[C@H](C(F)(F)F)CC4)ncnc23)c1 [Example-39, 2-Chloro-5-(pivalamidomethyl)-N-(4-(((1r,4r)-4-(trifluoromethyl)cyclohexyl)oxy)quinazolin-8-yl)benzamide] | 98 | 99.5 | > 7.30
CC(C)(C)C(=O)NCc1ccc(Cl)c(C(=O)Nc2cccc3c(Oc4cc(C(F)(F)F)ccc4F)ccnc23)c1F [Example-40, 6-Chloro-2-fluoro-N-(4-(2-fluoro-5-(trifluoromethyl)phenoxy)quinolin-8-yl)-3-(pivalamidomethyl)benzamide] | 99.3 | 98.5 | > 7.30
CC(C)(C)C(=O)NCc1ccc(Cl)c(C(=O)Nc2cccc3c(Oc4cc(C(F)(F)F)ccc4F)nccc23)c1 [Example-41, 2-Chloro-N-(1-(2-fluoro-5-(trifluoromethyl)phenoxy)isoquinolin-5-yl)-5-(pivalamidomethyl)benzamide] | 99 | 97.6 | > 7.30
Cc1ccc2c(Nc3cccc(C(F)(F)F)c3)ncnc2c1NC(=O)c1c(Cl)ccc(CNC(=O)C(C)(C)C)c1F [Example-42, 6-Chloro-2-fluoro-N-(7-methyl-4-((3-(trifluoromethyl)phenyl)amino)quinazolin-8-yl)-3-(pivalamidomethyl)benzamide] | 96.5 | 99.6 | > 7.30
CCOc1ncnc2c(NC(=O)c3c(Cl)ccc(CNC(=O)C(C)(C)C)c3F)cccc12 [Example-43, 6-Chloro-N-(4-ethoxyquinazolin-8-yl)-2-fluoro-3-(pivalamidomethyl)benzamide] | 98.4 | 99.9 | > 7.30
CC(C)(C)C(=O)NCc1ccc(Cl)c(C(=O)Nc2cccc3c(Nc4ccc(C(F)(F)F)cc4F)nccc23)c1 [Example-44, 2-Chloro-N-(1-((2-fluoro-4-(trifluoromethyl)phenyl)amino)isoquinolin-5-yl)-5-(pivalamidomethyl)benzamide] | 100 | 100 | > 7.30
CC(C)(C)C(=O)NCc1ccc(Cl)c(C(=O)Nc2cccc3c(Nc4ccc(C(F)(F)F)cc4)nccc23)c1 [Example-45, 2-Chloro-5-(pivalamidomethyl)-N-(1-((4-(trifluoromethyl)phenyl)amino)isoquinolin-5-yl)benzamide] | 99.6 | 98.3 | > 7.30
